# Tested on: rats with paclitaxel CIPN
# Test: Paclitaxel CIPN mechanical hyperalgesia, Randall-Selitto paw-withdrawal test
# Type: in vivo, Sprague-Dawley rats
# Method: Experimental animals. Experiments were performed on 220-400 g male and female Sprague-Dawley rats, purchased from Charles River Laboratories (Hollister, CA, USA), housed three per cage, under a 12-hour light/dark cycle, in a temperature- and humidity-controlled animal care facility at the University of California, San Francisco. Food and water were available ad libitum. Experimental protocols were approved by the University of California, San Francisco, Institutional Animal Care and Use Committee, and adhered to the National Institutes of Health Guidelines for the care and use of laboratory animals.
# Measurement of nociceptive threshold. Mechanical nociceptive threshold was quantified with an Ugo Basile Analgesymeter (Stoelting, Wood Dale, IL, USA), used to perform the Randall-Selitto paw-withdrawal test [61; 68; 69]. This device uses a dome-shaped plinth to apply a mechanical force that increases linearly with time, to the dorsum of a rat's hindpaw. To perform the Randall-Selitto paw-withdrawal test, rats were placed in cylindrical acrylic restrainers with lateral ports that allow access to the hind paw, as described previously. Rats were acclimatized to the testing procedure by placing them in restrainers for 1 h per day for 3 consecutive daily training sessions, and for 30-40 min prior to experiments.
# Mechanical nociceptive threshold is defined as the force, in grams, applied by the plinth to the dorsum of the hindpaw, at which a rat withdraws its paw from the stimulus. Baseline paw-withdrawal threshold is defined as the mean of three readings taken before administration of test agents. To minimize experimenter bias, individuals conducting experiments were blinded to experimental treatments. Each experiment was performed on a different group of rats. Data are presented as mechanical nociceptive threshold, in grams (g) or percentage change from preintervention baseline.
# Hyaluronans were initially dissolved in distilled water (dH2O) at a concentration of 10 μg/μL, stock solution, and further diluted by adding DMSO with three final concentrations of hyaluronan (1, 2 and 4 μg/μL), protamine or terpene; unless otherwise stated, the final concentration of DMSO was 75%. The DMSO vehicle was 75% DMSO in 0.9% saline. In one experiment, 500-1200 kDa hyaluronan was administered topically in 0.9% saline vehicle. PGE2 was dissolved in 0.9% saline at the same final concentration that we previously injected intradermally (100 ng/5 μL). In the experiments in which hyaluronan was dissolved in protamine or terpene vehicle, protamine was first dissolved in distilled water (dH2O) to a concentration of 5 μg/μ1, stock solution of hyaluronan was combined with protamine at the final concentration of 2 μg/μ1, in a volume of 3 μl, for topical administration; terpene was first dissolved in dH2O at the concentration of 2 μg/μ1, then hyaluronan was dissolved in stock solution of terpene to its final concentration of 2 μg/μ1, in a volume of 3 μl, for topical administration).
# Paclitaxel CIPN: Paclitaxel was dissolved in Cremophor EL and ethanol (1:1) [1; 6; 20; 22] and diluted in 0.9% saline to a concentration of 1 mg/mL, just prior to its intraperitoneal (i.p.) administration (1 mg/kg, i.p.) [19; 42] to rats briefly anesthetized with isoflurane (2.5% in O2), every other day for a total of 4 doses.
# Hyaluronans (30 μL) were administered topically on the dorsum of the hind paw, dispensed from a P200 pipette (Gilson, Middleton, WI, USA) with a plastic pipette tip and then spread manually.
# Antisense oligodeoxynucleotides (ODNs).
# Before use, ODNs were reconstituted in nuclease-free 0.9% saline and then administered by the intrathecal (i.t.) route. As described previously, rats were anesthetized with isoflurane (2.5% in O2) and 120 μg of ODN, in a volume of 20 μL, injected i.t., using a syringe ([…]) attached to a 29-gauge hypodermic needle that was inserted into the subarachnoid space, between the L4 and L5 vertebrae. […]
substance,measurement,setting,value
hyaluronan [500-1200 kDa hyaluronan],hyperalgesia induced by paclitaxel,"female rats given i.t. GPR30 antisense or mismatch ODN, topical 2 μg/μL, 30 μL",only attenuated the hyperalgesia induced by paclitaxel in the GPR30 antisense-treated group
same,hyperalgesia induced by paclitaxel,"gonad intact female rats, topical 2 μg/μL, 30 μL in DMSO vehicle",did not attenuate hyperalgesia
same,hyperalgesia induced by paclitaxel,"male rats given i.t. CD44 antisense or mismatch ODN, topical 2 μg/μL, 30 μL in DMSO",attenuated the hyperalgesia induced by paclitaxel only in the CD44 mismatch-treated group
same,time at which anti-hyperalgesia was still present after the second administration,"male rats, reapplied at the same site after first effect wore off, DMSO vehicle",≥ 180 min
same,hyperalgesia induced by paclitaxel,"male rats, topical 2 μg/μL, 30 μL in DMSO, day 7",attenuated the hyperalgesia induced by paclitaxel
same,"time by which anti-hyperalgesia dissipated, first administration","male rats, topical 2 μg/μL, 30 μL in DMSO, repeated-administration experiment",≤ 120 min
same,anti-hyperalgesia in paclitaxel-induced CIPN,"ovariectomized female rats, topical 2 μg/μL, 30 μL in DMSO",induced anti-hyperalgesia of similar magnitude to that observed in gonad intact male rats
